PubChem BioAssay (NCI)
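Test compounds were applied to cells in 96-well plates for 48 hours at 5 doses. TGI is the concentration that stops growth completely.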

How the values were obtained:
Experiment in all cases: growth of human tumour cells (NCI), 48 h
[1] = test system: TK-10 renal
[2] = test system: CAKI-1 renal
[3] = test system: U251 CNS
[4] = test system: MALME-3M melanoma
[5] = test system: BT-549 breast
[6] = test system: M19-MEL melanoma
[7] = test system: LXFL 529 NSCLC
[8] = test system: SN12C renal
[9] = test system: UO-31 renal
[10] = test system: SNB-19 CNS

| SMILES | TGI [1] | TGI [2] | TGI [3] | TGI [4] | TGI [5] | TGI [6] | TGI [7] | TGI [8] | TGI [9] | TGI [10] |
| --- | --- | --- | --- | --- | --- | --- | --- | --- | --- | --- |
| Nc1ccc2c(SCC(=O)Nc3ccccc3-c3ccccc3NC(=O)CSc3c4ccccc4nc4cc(N)ccc34)c3ccccc3nc2c1 | 75.3 µM | > 83.5 µM | 66.5 µM | 56 µM | 85.1 µM | 70.5 µM | 41.3 µM | > 87.2 µM | 58.4 µM | 44.2 µM |
| COC(=O)C1=C(C(=O)OC)C(C(=O)OC)C(C(=O)OC)C(C(=O)OC)(C(=O)OC)C(C(=O)OC)=C1C(=O)OC (stereo not drawn) | 29 µM | 36.7 µM | 31 µM | 15.7 µM | 32.1 µM | 25.6 µM | 21.8 µM | 27.5 µM | 30.7 µM | 33 µM |
| C/C(N=NC(=S)N1CCCCCC1)=C1\C=CC=CN1O | > 100 µM | > 89.3 µM | > 100 µM | 36.4 µM | > 100 µM | 59.3 µM | > 100 µM | > 100 µM | > 100 µM | > 100 µM |
| COc1cc2c3c(c1OC)/C(=N/OS(=O)(=O)c1ccc(C)cc1)CC3N(S(=O)(=O)c1ccc(C)cc1)CC2 (stereo not drawn) | > 100 µM | > 100 µM | > 100 µM | > 100 µM | – | > 100 µM | > 100 µM | > 100 µM | > 100 µM | > 100 µM |
| c1cc2ccc1C1NCCCN1CCN1CCCNC1c1ccc(cc1)C1NCCCN1CCN1CCCNC21 (stereo not drawn) | > 100 µM | > 100 µM | > 100 µM | > 100 µM | – | > 100 µM | > 100 µM | > 100 µM | > 100 µM | > 100 µM |
